Experimental data: patent US20240124422A1, “MUTANT PI3K-ALPHA INHIBITORS AND THEIR USE AS PHARMACEUTICALS” (Prelude Therapeutics Incorporated, priority 2022, published 2024)
Where two headings read alike, the source gives them in different places.

Columns and labels:
[1] = system: phosphorylation of AKT on Ser473 as a readout of the PI3K pathway in T-47D (heterozygous PIK3CA H1047R) cells; assay: PI3K pathway activation assay, pAKT Ser473 HTRF, T-47D cells; assay type: cell-based; conditions: two hours of treatment
Summary of the method: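 pAKT Ser473 measured by HTRF in SKBR3 (PIK3CA WT) and T-47D (PIK3CA H1047R) cells, 4,000/well. Signal normalised to background and DMSO controls as percent inhibition.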

[2] = system: phosphorylation of AKT on Ser473 as a readout of the PI3K pathway in SKBR3 (PIK3CA WT) cells; assay: PI3K pathway activation assay, pAKT Ser473 HTRF, SKBR3 cells; assay type: cell-based; conditions: two hours of treatment
Procedure: The inhibitory activity of compounds was evaluated by measuring phosphorylation of AKT on Ser473 as a readout of the PI3K pathway using HTRF (CisBio catalog number: 64AKSPE). These studies were conducted in the T-47D (heterozygous PIK3CA H1047R) and SKBR3 (PIK3CA WT) cell lines. Cells were maintained in a 37° C. incubator at 5% CO2 in the following media: T-47D: RPMI 1640, ATCC© Modification (Gibco, A10491-01) supplemented with 10% v/v FBS (Gibco, 26140-079), 1% penicillin streptomycin (Gibco, 15140-122), and 7.4 ug/mL insulin (MilliporeSigma, I9278); SKBR3: McCoy's 5a (Modified) Medium (Gibco, 16600-082) supplemented with 10% v/v FBS (Gibco, 26140-079). Cells were seeded in 384-well plates at a density of 4,000 cells/well. Compounds dissolved in DMSO were added using a digital dispense (D300E, Tecan) 10-point serial dilution. After two hours of treatment, cells were lysed for thirty minutes and then incubated with detection reagents per HTRF kit material and manufacturer's instructions. Fluorescence signal was measured with a multimode plate reader (Envision 2105, Perkin Elmer). Fluorescent signal was normalized to background and DMSO controls to obtain percent inhibition/activity for each compound.

Row | Compound | IC50 ([1]; Homo sapiens, T47D, 2 h) | IC50 ([2]; Homo sapiens, SK-BR-3, 2 h) | IC50 ([1]; read-out: T47D pAKT IC50) | IC50 [2]
1 | Cc1cc(C(C)Nc2ccccc2C(=O)O)c2nc(N3C[C@@H]4[C@H](C3)[C@H]4C(=O)N(C)C)n(C)c(=O)c2c1 (stereo partly drawn) [Example 90, 2-((1-(2-((1R,5S,6R)-6-(Dimethylcarbamoyl)-3-azabicyclo[3.1.0]hexan-3-yl)-3,6-dimethyl-4-oxo-3,4-dihydroquinazolin-8-yl)ethyl)amino)benzoic acid] |  |  | 0.5 to 10 µM | > 10 µM
2 | Cc1cc(C(C)Nc2ccccc2C(=O)O)c2nc(N(C)C)n(C)c(=O)c2c1 (stereo not drawn) [Example 54, 2-[1-[2-(dimethylamino)-3,6-dimethyl-4-oxoquinazolin-8-yl]ethylamino]benzoic acid] | 0.5 to 10 µM | > 10 µM |  | 
3 | Cc1cc(C(C)Nc2ccccc2C(N)=O)c2nc(N3Cc4ccccc4C3)n(C)c(=O)c2c1 (stereo not drawn) [Example 4, 2-((1-(2-(isoindolin-2-yl)-3,6-dimethyl-4-oxo-3,4-dihydroquinazolin-8-yl)ethyl)amino)benzamide] | 0.5 to 10 µM | > 10 µM |  | 
4 | Cc1cc(C(C)Nc2cc(C#N)ccc2C(=O)O)c2nc(N3CC4CC4C3)n(C)c(=O)c2c1 (stereo not drawn) [Example 23, 2-((1-(2-(3-azabicyclo[3.1.0]hexan-3-yl)-3,6-dimethyl-4-oxo-3,4-dihydro-quinazolin-8-yl)ethyl)amino)-4-cyanobenzoic acid] | 0.5 to 10 µM | > 10 µM |  | 
5 | Cc1cc(C(C)Nc2cccnc2C(=O)O)c2nc(N3Cc4ccccc4C3)n(C)c(=O)c2c1 (stereo not drawn) [Example 28, 3-((1-(2-(isoindolin-2-yl)-3,6-dimethyl-4-oxo-3,4-dihydroquinazolin-8-yl)ethyl)amino)picolinic acid] | 0.5 to 10 µM | > 10 µM |  | 
6 | Cc1cc(C(C)Nc2ccccc2S(C)(=O)=O)c2nc(N3Cc4ccccc4C3)n(C)c(=O)c2c1 (stereo not drawn) [Example 8, 2-(isoindolin-2-yl)-3,6-dimethyl-8-(1-((2-(methylsulfonyl)phenyl)amino)ethyl)quinazolin-4(3H)-one] | 0.5 to 10 µM | > 10 µM |  | 
7 | Cc1cc(C(C)Nc2cn(C)nc2C(=O)O)c2nc(N3Cc4ccccc4C3)n(C)c(=O)c2c1 (stereo not drawn) [Example 34, 4-((1-(2-(isoindolin-2-yl)-3,6-dimethyl-4-oxo-3,4-dihydroquinazolin-8-yl)ethyl)amino)-1-methyl-1H-pyrazole-3-carboxylic acid] | 0.5 to 10 µM | > 10 µM |  | 

More lines, main results first:

Row | IC50 ([1]; Homo sapiens, T47D, 2 h) | IC50 ([2]; Homo sapiens, SK-BR-3, 2 h) | Compound | IC50 ([1]; read-out: T47D pAKT IC50) | IC50 [2]
8 | 0.5 to 10 µM | > 10 µM | COCCn1c(N2Cc3ccccc3C2)nc2c(C(C)Nc3ccccc3C(=O)O)cc(C)cc2c1=O (stereo not drawn) [Example 19, 2-((1-(2-(isoindolin-2-yl)-3-(2-methoxyethyl)-6-methyl-4-oxo-3,4-dihydroquinazolin-8-yl)ethyl)amino)benzoic acid] |  | 
9 | 0.5 to 10 µM | > 10 µM | Cc1cc(C(C)Nc2ccc(F)c(O)c2F)c2nc(N3Cc4ccccc4C3)n(C)c(=O)c2c1 (stereo not drawn) [Example 11, 8-(1-((2,4-difluoro-3-hydroxyphenyl)amino)ethyl)-2-(isoindolin-2-yl)-3,6-dimethylquinazolin-4(3H)-one] |  | 
10 | < 0.5 µM | > 10 µM | Cc1cc(C(C)Nc2ccccc2C(=O)O)c2nc(N3Cc4ccccc4C3)n(C)c(=O)c2c1 (stereo not drawn) [Example 1, 2-((1-(2-(isoindolin-2-yl)-3,6-dimethyl-4-oxo-3,4-dihydroquinazolin-8-yl)ethyl)amino)benzoic acid] |  | 
11 | < 0.5 µM | > 10 µM | Cc1cc(C(C)Nc2ccccc2C(=O)O)c2nc(N3Cc4ccccc4C3)n(C(C)C)c(=O)c2c1 (stereo not drawn) [Example 21, 2-((1-(2-(isoindolin-2-yl)-3-isopropyl-6-methyl-4-oxo-3,4-dihydroquinazolin-8-yl)ethyl)amino)benzoic acid] |  | 
12 | < 0.5 µM | > 10 µM | Cc1cc(C(C)Nc2ccc(F)cc2C(=O)O)c2nc(N3CC4CC4C3)n(C)c(=O)c2c1 (stereo not drawn) [Example 123, 2-[1-[2-(3-Azabicyclo[3.1.0]hexan-3-yl)-3,6-dimethyl-4-oxoquinazolin-8-yl]ethylamino]-5-fluorobenzoic acid] |  | 
